The results in this text go back to US20060002934A1 (priority 2002, published 2006).

Experiment [1] concerns parental, wt and mutant E-cadherin expressing MDA-MB-435S cells. The experiment in a line: Sensitivity profiling by XTT-cell proliferation and viability assay. Conditions: 48 h treatment, increasing concentrations; parental vs wt vs mutant E-cadherin cells. In kind it is cell-based, human. The method, then:
Cells were seeded at a density of […] cells per well in 96-well microtiter plates (Nunc, Wiesbaden-Biebrich, Germany) in 100 μl DMEM with 10% FCS per-well, and cell proliferation was investigated by XTT-cell proliferation and viability assay (Roche Molecular Biochemicals, Mannheim, Germany). After 24, 48 and 72 h, 50 μl XTT labeling mixture was added. The cleavage of the tetrazolium salt XTT to form a formazan dye that occurs in metabolically active viable cells was quantified spectrophotometrically by measuring the absorbance of the formazan product at 450 nm by an ELISA plate reader. The absorbance values obtained when culture medium without cells was assayed was subtracted from the values obtained with cells. Quadruplicate determinations were performed for each time point. The sensitivity of parental, wt and mutant E-cadherin expressing MDA-MB-435S cells to the chemotherapeutic agents cisplatin, etoposide and 5-FU was investigated by XTT-cell proliferation and viability assay as described above. […] After 48 h, 50 μXTT labeling mixture was added and the absorbance values at 450 nm were measured spectrophotometrically by an ELISA plate reader. The absorbance values obtained when culture medium without cells was assayed, were subtracted from the values obtained with cells. […] The percentage of viable cells was determined corresponding to non-treated cells.
A general note: Tetrazolium dyes change colour on reduction, which living cells bring about.

For experiment [2] the test system is unchanged. Description: Colony formation assay. In kind it is cell-based, human. Conditions: 2 h treatment, colonies counted after 7 days; parental vs wt vs mutant E-cadherin cells. The method, then: Chemosensitivity to cisplatin, etoposide and 5-FU of parental, wt and mutant E-cadherin expressing MDA-MB-435S cells was investigated by colony formation assay. Cells were seeded at a density of 2×10^3 cells per 6-well and treated 3 h later for 2 h with cisplatin, etoposide or 5-FU. Colonies were fixed and stained after 7 days with Diff Quick Reagent (Dade Behring, Liederbach, Germany) and the colony number was determined with Scion Image Software from Scion Corporation (Frederick, USA). The percentage of colonies was determined corresponding to non-treated cells.

Take `N.N.[Cl][Pt][Cl]` [cisplatin]: the “sensitivity profile, cell survival by XTT assay” value in experiment [1] is “reduced sensitivity of wt or mutant E-cadherin expressing MDA-MB-435S cells as compared to parental cells”. For the same compound, the “sensitivity profile, colony formation” value in experiment [2] is “reduced sensitivity of wt or mutant E-cadherin expressing MDA-MB-435S cells as compared to parental cells”.
